Source: US20230041859A1, “USE OF TERPENOIDS IN THE TREATMENT OR PREVENTION OF FIBROTIC DISEASES” (Arjil Biotech Holding Company Limited, priority 2021, published 2023)

Legend:
[1] = tested on: cisplatin-induced renal injury; experiment: Cisplatin-induced renal injury: kidney histopathology (H&E); format: in vivo, mice; conditions: compound, dose not given
Excerpt: Kidney histopathology The anterior portion of the left lateral liver lobe from each mouse is fixed in 10% formaldehyde phosphate buffer, embedded in paraffin, cut into 5 μm sections, and then treated with an hematoxylin and eosin (H&E) stain for histological examination under the light microscopy (Nikon, ECLIPSE, TS100, Tokyo, Japan). Images are captured with a digital camera (NIS-Elements D 2.30, SP4, Build 387) at an original magnification of 400×.
(§1) Seven-to-eight-week-old male C57BL/6 mice are obtained from the BioLASCO Taiwan Co., Ltd. (Taipei, Taiwan). The animals are housed in Plexiglas cages at a constant temperature of 22±1° C. and a relative humidity of 55±5% on a 12 h dark-light cycle for at least 2 weeks before the experiment. Animals are provided food and water ad libitum. All experimental procedures are performed according to the guidelines of the Institutional Animal Ethics Committee, and the protocol is approved by the Committee for the Purpose of Control and Supervision of Experiments on Animals.
Renal fibrosis is induced via multiple injections of low-dose cisplatin. […]
The histopathological changes are analyzed to determine whether Antrodia camphorata extract and compounds affected renal failure in cisplatin-stimulated mice. […]

[2] = tested on: cisplatin-induced renal injury; experiment: Mice model of cisplatin-induced renal injury: serum creatinine (CRE) and BUN; format: in vivo; conditions: compounds, dose not given, daily for 7 days; p<0.001 vs cisplatin group
Experimental: Determination of biochemical parameters Serum creatinine and serum urea are assessed using colorimetric kits according to manufacturer's instructions. Kits of the former markers are purchased from (HUMAN Diagnostics Worldwide, Magdeburg, Germany) with a chemical analyzer (Roche Diagnostics, Cobas Mira Plus, Rotkreuz, Switzerland).
as §1
Renal fibrosis is induced via multiple injections of low-dose cisplatin. Intraperitoneal injections of cisplatin (5 mg/kg/injection; P4394, Sigma-Aldrich, St Louis, Mo.) are performed at 0, 1, and 3 weeks, for a total of 3 injections. Mice are sacrificed at 6 weeks after the first dose of cisplatin (n=6). To analyze the effects of samples, mice are given daily intraperitoneal injections for 7 days, starting from 4 weeks after first dose of cisplatin, and sacrificed at […] (n=6). […]

[3] = tested on: Con A-induced acute hepatitis; experiment: Con A (concanavalin A) induced acute hepatitis in BALB/c mice; format: in vivo; conditions: 24 h after Con A; mean±SEM; vehicle 1.4±0.2
Excerpt: Intravenous injection of concanavalin A (Con A) is a widely used strategy to study T cell mediated hepatitis. Con A is a lectin that can activate CD4^+ T cells, produce cytokines, and lead to liver cell damage. Dexamethasone (Dex) is a long acting synthetic corticosteroid, and has been used as anti-inflammatory and immunosuppressive medication.
Male BALB/c mice (7-9 weeks old) were purchased from BioLASCO Taiwan Co., Ltd or National Laboratory Animal Center (NLAC, Taiwan). Animals are housed five per cage with food and water provided ad libitum throughout the experiments. Room temperature is maintained at 23±2° C. with an alternating 12 h light dark cycle. Animals are acclimatized for one week to minimize the effect of stress before the experiments. All experimental protocols involving animals and their care are approved by the Institutional Animal Care and Use Committee (IACUC) in ITRI (ITRI-IACUC-2018-041 and ITRI-IACUC-2018-050; accredited by AAALAC) and are carried out according to the regulations of the Council of Agriculture, Taiwan. […]
To assess the level of hepatocellular injury after Con A treatment, serum GPT and GOT levels are measured by Fuji Dri-Chem slides (Fuji, Japan). […] Cytokine levels are measured by ProcartaPlex™ immunoassays kit according to manufacturer's instructions. […]

[4] = tested on: CCl4-induced chronic liver fibrosis; experiment: CCl4-induced chronic liver fibrosis in rat; conditions: in vivo
Experimental: Blood samples are collected at week 0, 2, 4, 6, and 8. The animals are sacrificed at the end of the 8-week for histopathological examinations. FIGS. 7A, 7B, 7C depict delta weight, liver weight, and liver/body-weight ratio, respectively.
The level of clinical biochemistry such as aspartate aminotransferase (AST), alanine aminotransferase (ALT), is evaluated to determine the enzymatic activities of the livers of the control groups and the experimental groups (shown in FIGS. 8A-8C).

[5] = tested on: NO, TNF-α, IL-1β, and IL-6; experiment: Cisplatin-induced renal injury: pro-inflammatory cytokines in serum (ELISA); format: in vivo, mice; conditions: compound, dose not given
Experimental: TNF-α, IL-6, and IL-1β cytokines in serum The serum concentration of the pro-inflammatory cytokines (i.e. tumor necrosis factor-α (TNF-α), interleukin-6 (IL-6), and IL-1β) in serum are assessed with relevant enzyme-linked immunosorbent assay (ELISA) kits (Biosource International Inc., Sunnyvale, Calif., USA), based on the manufacturer's instructions.
as §1
Renal fibrosis is induced via multiple injections of low-dose cisplatin. Intraperitoneal injections of cisplatin (5 mg/kg/injection; P4394, Sigma-Aldrich, St Louis, Mo.) are performed at 0, 1, and 3 weeks, for a total of 3 injections. Mice are sacrificed at 6 weeks after the first dose of cisplatin (n=6). […]

HepG2 cells = experiment: Oleic acid-induced steatosis in HepG2 cells (Oil Red O); format: cell-based, human; conditions: 6 h pre-treatment, then 0.5 mM OA for 24 h, OD 510 nm, at noncytotoxic concentration
Experimental: Oleic acid (OA) induced steatosis in HepG2 cells and may consider an in vitro model for human fatty liver disease. HepG2 cells were treated with different concentrations of oleic acid (OA) to induce steatosis. Intracellular lipid was stained by Oil Red O (ORO), and quantified by colorimetric assay. 0.5 mM OA was chosen for further studies (FIGS. 37 and 38). HepG2 cells were treated with test compounds ([…]) and incubated for 48 h (FIG. 39). HepG2 cells were seeded in 24-well plates and deprived from FBS for 24 h. These cells were then treated with different concentrations of test compounds for 6 h before induced with 0.5 mM OA for 24 h. Cells were gently washed with PBS and fixed using paraformaldehyde at RT, then stained with Oil Red (ORO) solution for 30 min at RT. ORO stain was extracted using pure isopropanol and the optical density was detected at 510 nm (FIG. 40).

C=C1C(=O)O[C@H]2/C=C(\C)CC3C=C(CC/C=C(\C)CC[C@H]12)C(=O)O3 (stereo partly drawn) [AR100-DS1, Ovatodiolide]
necrosis and inflammatory infiltrating cells in the kidney tissue [1]: significantly improved
renal protection effect (normalization of serum CRE and BUN) [2]: significant renal protection effect
liver necrosis histopathological score (0 to 4) [3]: 0.2±0.2
CCl4-induced liver injury, overall [4]: potential to partially repair
NO, TNF-α, IL-1β, and IL-6 production after cisplatin challenge [5]: improved
OA-induced steatosis in HepG2 cells (HepG2 cells): inhibition
